“And” between values parts separate entries of the source, which are not always exact repeats. Equal values may be shown once.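 These data come from cells grown in 96-well plates and exposed to compound for 48 hours at five concentrations. GI50 marks 50% less growth. TGI denotes the concentration required for complete inhibition of growth.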
Assays:
Assay in all cases: NCI-60 cell line screen, 48 h
A498 renal = test system: A498 renal
HOP-62 NSCLC = test system: HOP-62 NSCLC
K-562 leukemia = test system: K-562 leukemia
KM12 colon = test system: KM12 colon
SK-MEL-2 melanoma = test system: SK-MEL-2 melanoma
SNB-75 CNS = test system: SNB-75 CNS
SW-620 colon = test system: SW-620 colon
U251 CNS = test system: U251 CNS

| Structure (SMILES) | GI50 (A498 renal) | TGI (A498 renal) | GI50 (HOP-62 NSCLC) | TGI (HOP-62 NSCLC) | GI50 (K-562 leukemia) | TGI (K-562 leukemia) | GI50 (KM12 colon) | TGI (KM12 colon) | GI50 (SK-MEL-2 melanoma) | TGI (SK-MEL-2 melanoma) | GI50 (SNB-75 CNS) | TGI (SNB-75 CNS) | GI50 (SW-620 colon) | TGI (SW-620 colon) | GI50 (U251 CNS) | TGI (U251 CNS) |
| --- | --- | --- | --- | --- | --- | --- | --- | --- | --- | --- | --- | --- | --- | --- | --- | --- |
| O=C(Nc1ccncc1)C(=O)c1cn(S(=O)(=O)c2cccc(F)c2)c2ccccc12 | 13.4 µM | 97 µM | 3.58 µM | 61 µM | 1.65 µM | > 100 µM | 3.04 µM | > 100 µM | 10.3 µM | > 100 µM | 2.62 µM | 17.8 µM | 3.02 µM | > 100 µM | 4.38 µM | > 100 µM |
| O=C(N/C(=C\c1cccc([N+](=O)[O-])c1)c1nc2ccc([N+](=O)[O-])cc2[nH]1)c1ccccc1 |  |  |  |  |  | > 100 µM |  | > 100 µM |  | 61 µM |  |  |  | > 100 µM |  | > 100 µM |
| COc1ccc(NC(=O)CC(=O)N/N=C/c2ccc(N(CCC#N)S(C)(=O)=O)cc2)cc1 |  | > 100 µM |  | > 100 µM |  | > 100 µM |  | > 100 µM |  | > 100 µM |  | > 100 µM |  | > 100 µM |  | > 100 µM |
| COc1ccc(N2C(=O)/C(=C/c3ccc(N(CCC#N)CCC#N)cc3C)N=C2c2cc([N+](=O)[O-])ccc2Cl)cc1 |  | > 56.2 µM |  | > 63.1 µM |  | 36.7 µM |  | 45.8 µM |  | 39.6 µM |  | 7.06 µM |  | > 56.2 µM |  | 43.3 µM |
| CC1CN1C(=O)NCCCCCCNC(=O)N1CC1C (stereo unspecified) |  | > 100 µM |  | > 100 µM |  | > 100 µM |  | > 100 µM |  | > 100 µM |  | > 100 µM |  | > 100 µM |  | > 100 µM |
| O=[N+]([O-])c1ccc(C=NC2CCCCC2)cc1 |  | > 100 µM |  | > 100 µM |  | > 100 µM |  | > 100 µM |  | > 100 µM |  | > 100 µM |  | > 100 µM |  | > 100 µM |
| CCCC1N2CCCCC2[C@@H]2c3[nH]c4ccccc4c3CCN12 (stereo partly specified) |  | > 100 µM |  | > 100 µM |  | > 100 µM |  |  |  | > 100 µM |  | > 100 µM |  | > 100 µM |  | > 100 µM |
| Nc1cccc(S(=O)(=O)NCC(=O)O)c1 |  |  |  | > 100 µM |  | > 100 µM |  | > 100 µM |  | > 100 µM |  | > 100 µM |  | > 100 µM |  | > 100 µM |
| N#CC(C#N)=C1Nc2ccccc2S1 | 26.6 µM | 55.5 µM | 40.3 µM | > 100 µM | 38.3 µM | > 100 µM | 34.8 µM | > 100 µM | 28.5 µM | 56.2 µM |  |  | 40.1 µM | > 100 µM | 43.6 µM | > 100 µM |
| NC1=NC(c2ccccc2)CC(c2cc(Cl)ccc2O)=N1 (stereo unspecified) |  | 34.5 µM |  | 30.2 µM |  | 40.8 µM |  | 26.9 µM |  |  |  | 31.7 µM |  | 27 µM |  | 29.9 µM |
| C[C@@H]1OC(=O)N2CCCC(=C3SCCCS3)C12 (stereo partly specified) |  | > 100 µM |  |  |  | > 100 µM |  | > 100 µM |  | > 100 µM |  | > 100 µM |  | > 100 µM |  | > 100 µM |
| CC(=O)O[C@H]1C(=O)[C@@]2(C)C(C(OC(=O)c3ccccc3)[C@]3(O)CC(OC(=O)[C@H](OC(=O)CCC(=O)O)C(NC(=O)c4ccccc4)c4ccccc4)C(C)=C1C3(C)C)C1(OC(C)=O)COC1C[C@@H]2O (stereo partly specified) |  |  | < 0.0175 µM and 0.0835 µM | > 100 µM |  |  |  |  |  |  | 0.022 µM and 0.076 µM |  |  | > 100 µM |  | > 100 µM |
| Cn1c2ccccc2c2ccc3c(c21)C(=O)c1ccccc1C3=O |  |  |  | 45.5 µM |  | 32.2 µM |  | > 100 µM |  |  |  |  |  | > 100 µM |  | 34.9 µM |
| O=C(O)C(CS)Nc1c2ccccc2nc2ccccc12 (stereo unspecified) |  |  |  |  |  | > 100 µM |  | > 100 µM |  | > 100 µM |  | > 100 µM |  | > 100 µM |  | > 100 µM |
| NC12CC3CC(C1)CC(C(=O)O)(C3)C2 |  | > 100 µM |  | > 100 µM |  | > 100 µM |  | > 100 µM |  |  |  | > 100 µM |  | > 100 µM |  | > 100 µM |
| COc1cc(Nc2nc3ccccc3nc2-c2cccs2)cc(OC)c1OC |  |  |  | > 100 µM |  |  |  |  |  | > 100 µM |  | > 100 µM |  | > 100 µM |  | > 10 µM |
| C/C(CC(=O)Nc1cc(C)ccc1C)=N\NC(=O)c1ccncc1 |  |  |  | > 100 µM |  | > 100 µM |  | > 100 µM |  | > 100 µM |  | > 100 µM |  | > 100 µM |  | > 100 µM |
| O=c1cc(-c2ccccc2)oc2cc(OC/C(=N/O)c3ccccc3)ccc12 |  |  | 22.4 µM | > 50 µM | 36.5 µM | > 50 µM | 13.2 µM | > 50 µM | 20.2 µM | > 50 µM | 9.01 µM | 32.6 µM | > 50 µM | > 50 µM | 10.1 µM | 20 µM |
| O=C1c2ccccc2C(=O)N1CCc1ncc[nH]1 |  |  |  |  |  | > 100 µM |  | > 100 µM |  | > 100 µM |  |  |  | > 100 µM |  |  |
| CCOC(=O)/C(=C\c1ccccc1)C(=O)O |  | > 100 µM |  | > 100 µM |  | > 100 µM |  | > 100 µM |  | > 100 µM |  |  |  | > 100 µM |  | > 100 µM |
| CC(SC(=S)N1CCOCC1)c1cc2oc(=O)n(C)c2cc1Cl (stereo unspecified) |  |  |  | > 100 µM |  | > 100 µM |  | > 100 µM |  | > 100 µM |  | > 100 µM |  | > 10 µM |  | > 100 µM |
| O=C(CCc1cc(-c2ccccc2)nc(=S)[nH]1)N(Cc1ccccc1)Cc1ccccc1 |  | > 100 µM |  | > 100 µM |  | > 100 µM |  | > 100 µM |  | > 100 µM |  |  |  | > 100 µM |  | > 100 µM |
| CCOCC(=O)N[C@H]1CCc2cc(OC)c(OC)c(OC)c2-c2ccc(OC)c(=O)cc21 |  | 8.87 µM |  | > 100 µM |  | > 100 µM |  | 0.0334 µM |  | > 15.8 µM |  |  |  | > 100 µM |  | 8.9 µM |
| O/N=C/c1ncccc1C1OCCO1 |  |  |  | > 100 µM |  | > 100 µM |  | > 100 µM |  | > 100 µM |  | > 100 µM |  | > 100 µM |  | > 100 µM |
| N#C/C(=C\c1ccc2ccccc2c1)c1ccccc1 |  | 76.4 µM |  | 74.6 µM |  |  |  | > 100 µM |  | 85 µM |  | 48.6 µM |  | > 100 µM |  | 57.1 µM |
| O=C(CC1C(=O)NN(c2ccc(Br)cc2)C1=O)c1cc(O)ccc1O (stereo unspecified) | > 50 µM | > 50 µM |  |  | 14.8 µM | > 50 µM | 9.84 µM | 40.6 µM | 36.5 µM | > 50 µM | 24.8 µM | > 50 µM | 17.9 µM | > 50 µM | 14.2 µM | 36 µM |
| COc1cc(C(=O)CBr)c(OC)cc1C |  | > 100 µM |  | > 100 µM |  | > 100 µM |  | > 100 µM |  | > 100 µM |  |  |  | > 100 µM |  | > 100 µM |
